Reference: the METLIN SMRT retention time set (Domingo-Almenara et al. 2019)

Assay: gradient 5% acetonitrile 3 min, to 50% in 2 min, to 85% in 15 min, held 3 min, 100 µL/min
Details: column: Zorbax Extend-C18 2.1 x 50 mm; eluents: water / acetonitrile, 0.1% formic acid
Method in brief: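 Mixtures of ~100 pure standards were chromatographed on a Zorbax Extend-C18 column (2.1 × 50 mm, 1.8 μm) at 100 μL/min using water and acetonitrile, each with 0.1% formic acid. Detection used a quadrupole time-of-flight mass spectrometer in positive and negative ionization mode, and data collection spanned 3 months. Retention time was obtained from adduct peaks picked computationally and each checked manually.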

Row | RP-LC retention time | SMILES
1 | 665 s | CCOc1ccc(NC(=O)c2cc(=O)c3cc(Cl)ccc3o2)c2cccnc12
2 | 1320 s | CCN(CC)S(=O)(=O)c1cccc(-c2nc(-c3ccc(C)cc3)no2)c1
3 | 1180 s | CCOc1cccc(-c2noc(CN3C(=O)COc4cc(Cl)ccc43)n2)c1
4 | 723 s | Nc1cc(C2CCN(C(=O)Cc3c(F)cccc3Cl)CC2)no1
5 | 1220 s | Cc1cccc(-c2nc(-c3cccc(-c4ccnn4C)c3)no2)c1
6 | 665 s | C[C@H](CCC(=O)NCCS(=O)(=O)O)[C@H]1CC[C@H]2[C@@H]3[C@H](O)C[C@@H]4C[C@H](O)CC[C@]4(C)[C@H]3C[C@H](O)[C@]12C
7 | 862 s | CCCNC(=O)Cn1c(=O)c2cnc(-c3ccccc3)nc2n(CC)c1=O
8 | 725 s | COc1cccc(CNC(=O)C2CCN(C(=O)C3Sc4ccccc4NC3=O)CC2)c1 (stereo not given)
9 | 800 s | Cc1ccc(Nc2nc(C)cc3nn(CC(=O)Nc4ccc(N(C)C)cc4)c(=O)n23)cc1
10 | 1040 s | Cc1ccccc1-c1noc(CN2C(=O)COc3ccccc32)n1
11 | 769 s | CCOC(=O)c1ccc(Oc2ncnc(N)c2[N+](=O)[O-])cc1
12 | 635 s | COc1cc(C(=O)N2CCN(c3cc(C)c4ccccc4n3)CC2)cc(OC)c1OC
13 | 563 s | CCC(=O)N1CCc2cc(N3CC(C(=O)N4CCN(C)CC4)CC3=O)ccc21 (stereo not given)
14 | 717 s | Cc1ccc(Cn2c(CN3CCC(C(=O)N4CCOCC4)CC3)cc3ccccc32)cc1
15 | 1190 s | Cc1nn(-c2nc(CC(=O)N3CCC(C)CC3)cs2)c(C)c1Cl
16 | 1290 s | Cc1ccc(C2Cn3nnc(-c4nc(-c5ccccc5Cl)no4)c3CO2)c(C)c1 (stereo not given)
17 | 761 s | O=C(c1ccccc1Br)N1CCN(c2cc(-c3cccs3)[nH]n2)CC1
18 | 719 s | COCCN(Cc1ccc(C(C)C)cc1)Cc1cc(=O)n2cc(C)ccc2n1
19 | 1140 s | Clc1ccccc1-c1noc(Cc2nc(-c3ccc4c(c3)OCO4)cs2)n1
20 | 1120 s | COc1ccccc1-c1noc(-c2nc(-c3ccc4c(c3)OCO4)no2)n1
21 | 838 s | Cc1cccc(CN2C(=O)CN(S(C)(=O)=O)CC2(C)C(=O)NCc2ccccc2)c1 (stereo not given)
22 | 595 s | NC(=O)c1ccc(NC(=O)C2CCN(c3cc(N4CCCCC4)ncn3)CC2)cc1

Row | RP-LC retention time | SMILES
23 | 605 s | O=C(CN1CCC(COCc2ccccc2)CC1)Nc1ccc2c(c1)OCCO2
24 | 704 s | CCc1ccccc1NC(=O)Cc1c(C)nn(-c2nc(-c3ccccc3)cs2)c1C
25 | 968 s | CCCOc1nc2ccccc2nc1N1CCCC(C(=O)Nc2ccc(NC(C)=O)cc2)C1 (stereo not given)
26 | 570 s | CCN1C(=O)c2cc(C(=O)NCc3ccc(N(C)C)cc3)nn2CC1(C)C(=O)NC1CCCC1 (stereo not given)
27 | 732 s | O=C(c1ccc(-n2cccn2)nc1)N1CCCCC1
28 | 838 s | CCOc1ccc(NC(=O)Cn2nc3cc(-c4ccccc4)nc(C)n3c2=O)cc1
29 | 694 s | Cc1oc(-c2ccc(C(=O)NCCN(C)C)cc2)nc1CN1CCc2ccccc21
30 | 916 s | CCC(C(=O)NCCc1c[nH]c2ccccc12)n1c2ccccc2c2cnn(C)c(=O)c21 (stereo not given)
31 | 1080 s | COc1ccc(-c2nc(-c3ccc4oc(C)nc4c3)no2)cc1F
32 | 1170 s | COc1ccc(-n2c(=O)c(C(=O)NC3CCCC3)c(O)c3cccnc32)cc1
33 | 875 s | CC(C)Oc1ccc(CN2C(=O)C3(CCOCC3)CC2c2nnnn2C(C)(C)C)cc1 (stereo not given)
34 | 616 s | CCNC(=O)N1CCC(c2noc(-c3ccncc3)n2)C1 (stereo not given)
35 | 1100 s | COc1ccc(NS(=O)(=O)c2cccc(-c3nc(-c4ccccc4)no3)c2)cc1
36 | 676 s | CCN(CC)c1ccc(NC(=O)C2Cc3cc(S(=O)(=O)N4CCCC4)ccc3N2C(C)=O)c(C)c1 (stereo not given)
37 | 1090 s | CC1(C)CC(=O)c2cn(-c3ccccc3)c(=O)c(C(=O)Nc3ccc(F)cc3F)c2C1
38 | 1080 s | CCOc1ccc(-c2noc(Cn3c(=O)n(C(C)C)c(=O)c4ccccc43)n2)cc1OC
39 | 838 s | Cc1ccc(N2C(=O)CN(S(C)(=O)=O)CC2(C)C(=O)NCc2ccccc2)c(C)c1 (stereo not given)
40 | 578 s | O=C(Cn1ccc2ccn(Cc3cccnc3)c2c1=O)N1CCCC1
41 | 923 s | CC(=O)Nc1ccc(-c2noc(C3CCCN(C(=O)CCC4CCCC4)C3)n2)cc1 (stereo not given)
42 | 1090 s | Cc1ccc(-c2nc(C3CC(=O)N(c4ccc(F)c(Cl)c4)C3)no2)cc1C (stereo not given)
43 | 614 s | CCN1CCN(CCNC(=O)c2c(N3CCCC3=O)c3cc(F)ccc3n2CC)CC1
44 | 848 s | O=C(Cn1ccn2nc(-c3ccccc3)c(CO)c2c1=O)N1CCc2ccccc21

Row | RP-LC retention time | SMILES
45 | 655 s | O=c1oc2c(O)c(O)ccc2c2c1CCC2
46 | 1240 s | Cc1nn(-c2nc(-c3ccc(F)cc3)cs2)c(C)c1CC(=O)Nc1ccc(Br)cc1
47 | 641 s | Cc1nc(C)c(C(=O)N2CCCC(c3nn(C)c(=O)n3-c3ccccc3)C2)s1 (stereo not given)
48 | 838 s | CCc1ccc(C2=C(C)C(N3CCCN(C(=O)c4ccco4)CC3)=NS2(=O)=O)cc1
49 | 851 s | CCCCC(=O)Nc1ccc2nc(N3CCN(c4cc(Cl)ccc4C)CC3)cc(C(=O)O)c2c1
50 | 719 s | Clc1ccccc1-n1ncc2c(NCc3ccco3)ncnc21
51 | 668 s | O=C(Cn1c(-c2nnco2)cc2ccccc21)NCC1CCCO1 (stereo not given)
52 | 853 s | CCOc1ccc(-c2[nH]ncc2CNS(=O)(=O)Cc2ccc(C)cc2)cc1
53 | 584 s | Cc1cccc(NC(=O)C(=O)NCCN2CCN(c3ccc(F)cc3)CC2)c1C
54 | 825 s | Cc1nc(-c2ccc(C(=O)NC3CCCC3)cc2)cs1
55 | 809 s | COc1ccccc1N1CCN(S(=O)(=O)c2ccc3c(c2)CCCC(=O)N3)CC1
56 | 710 s | Cc1[nH]c(C)c(S(=O)(=O)N2CCC(C(=O)NC(C)(C)C)CC2)c1C(=O)N1CCCCC1
57 | 829 s | O=C(Nc1cnc(-c2ccc(F)cc2)nc1)C1CC1
58 | 1150 s | CCOc1ccc(Cl)cc1S(=O)(=O)N1CCC(C(=O)Nc2ccccc2C(=O)OC)CC1
59 | 889 s | Cc1c(C(=O)N2CCCC2)cc(-c2ccc(F)cc2)n1C
60 | 938 s | CCCc1nc(-c2c(C)cc(C)nc2NC(=O)c2cc(F)cc(F)c2)no1
61 | 749 s | CCn1cc(C)c(C(=O)O)c1CC(=O)NCCC(C)C
62 | 749 s | O=C(NCC1CCCO1)C(=O)NCC(c1cccs1)S(=O)(=O)c1ccc(F)cc1 (stereo not given)
63 | 763 s | CCCn1c(=O)sc2cc(S(=O)(=O)N3CCC(C(=O)NCC4CCCO4)CC3)ccc21 (stereo not given)
64 | 768 s | CN1CCN(c2nc3cc(C(F)(F)F)ccc3n3cccc23)CC1

Row | SMILES | RP-LC retention time
65 | CCN(CC)C(=O)N[C@H]1C[C@@H]2c3cccc4[nH]cc(c34)C[C@H]2N(C)C1 | 679 s
